{
  "source": "patent US20230233615A1",
  "about": "“PHARMACEUTICAL COMPOSITION FOR TREATING ALZHEIMER'S DISEASE” (Gwo Xi Stem Cell Applied Technology Co., Ltd., priority 2022, published 2023)",
  "key": {"[1]": {"system": "IL-1β", "assay": "Inhibition on NLRP3 by EVs, IL-1β in BV2 microglia cell line", "format": "cell-based", "conditions": "BV2 cells, LPS + ATP, 48 hours, 100 mM of mefenamic acid", "experimental": "(§1) In order to investigate anti-inflammatory and NLR family pyrindomain containing 3 (NLRP3) inflammasome inhibitory effects of ADSC-derived EVs, a study was performed using a BV2 microglia cell line (hereinafter referred to as BV2 cells). BV2 cells were initiated with 100 ng/ml of LPS and 5 mM of ATP, and 100 mM of mefenamic acid (a positive control group) or a low dose of ADSC-derived EVs (2×10^5 particles/cell) or a high dose of ADSC-derived EVs (2×10^6 particles/cell) in a humidified environment with 5%CO2 at 37° C. for 48 hours."}, "[2]": {"system": "IL-18", "assay": "Inhibition on NLRP3 by EVs, IL-18 in BV2 microglia cell line", "format": "cell-based", "conditions": "BV2 cells, LPS + ATP, 48 hours, 100 mM of mefenamic acid", "experimental": "as §1"}},
  "data": [
    {"smiles": "Cc1cccc(Nc2ccccc2C(=O)O)c1C", "note": "[mefenamic acid]", "values": [
      {"measurement": "inhibited expression of IL-1β (compared to PBS group)", "setting": "[1]; first stated set", "result": 35.4, "unit": "%"},
      {"measurement": "inhibited expression of IL-1β (compared to PBS group)", "setting": "[1]; second stated set", "result": 69.5, "unit": "%"},
      {"measurement": "inhibited expression of IL-18 (compared to PBS group)", "setting": "[2]; first stated set", "result": 29.2, "unit": "%"},
      {"measurement": "expression of IL-18 (compared to PBS group)", "setting": "[2]; second stated set", "result": "no significant change"}
    ]}
  ]
}
